Measurements: publication PMC2748841 (Nature, 2009)
Entries after “also recorded” stand apart in the source; their conditions may differ.

Key:
hippocampal neurons = format: binding, rat
APLP2 = APLP2 (Homo sapiens, UniProt Q06481); format: binding
APP = APP (Homo sapiens, UniProt P05067); format: binding
PrP-Fc = format: binding, mouse
control Fc protein = format: binding, human
PrP Δ52–91 = format: binding, mouse
[1] = format: physicochemical; details: pH 7
PrP^C = PrP^C (Mus musculus, UniProt P04925); format: binding
Sprn = target: T1, Sprn (Mus musculus, UniProt Q8BWU1); format: binding
T1 sequence (Q8BWU1 whole entry, looked up): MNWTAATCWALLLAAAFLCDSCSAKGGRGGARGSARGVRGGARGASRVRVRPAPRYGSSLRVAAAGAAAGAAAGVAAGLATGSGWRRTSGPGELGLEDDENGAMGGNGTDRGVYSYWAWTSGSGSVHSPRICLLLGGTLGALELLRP

Doppel = Doppel (Homo sapiens, UniProt Q9UKY0); format: binding
[2] = test system: receptor for advanced glycation endproducts (RAGE); format: binding
[3] = test system: hippocampal cultures from Prnp −/− mice; format: binding, mouse
PrP Δ32–121 = PrP Δ32–121 (Mus musculus, UniProt P04925, DEL32-121); format: binding
PrP Δ32–106 = PrP Δ32–106 (Mus musculus, UniProt P04925, DEL32-106); format: binding
PrP Δ95–105 = format: binding, mouse
PrP Δ70–105 = format: binding, mouse
[4] = test system: Schaffer collateral LTP, wild-type hippocampal slices; set-up: species or system mouse
[5] = test system: Schaffer collateral LTP, Prnp −/− hippocampal slices; set-up: species or system mouse
[6] = test system: NR-2B containing receptors; format: cell-based
[7] = test system: NR-2D containing receptors; format: cell-based
[8] = test system: hippocampal long-term potentiation; details: cited from earlier work

Chain of APLP2 (Q06481 32-763): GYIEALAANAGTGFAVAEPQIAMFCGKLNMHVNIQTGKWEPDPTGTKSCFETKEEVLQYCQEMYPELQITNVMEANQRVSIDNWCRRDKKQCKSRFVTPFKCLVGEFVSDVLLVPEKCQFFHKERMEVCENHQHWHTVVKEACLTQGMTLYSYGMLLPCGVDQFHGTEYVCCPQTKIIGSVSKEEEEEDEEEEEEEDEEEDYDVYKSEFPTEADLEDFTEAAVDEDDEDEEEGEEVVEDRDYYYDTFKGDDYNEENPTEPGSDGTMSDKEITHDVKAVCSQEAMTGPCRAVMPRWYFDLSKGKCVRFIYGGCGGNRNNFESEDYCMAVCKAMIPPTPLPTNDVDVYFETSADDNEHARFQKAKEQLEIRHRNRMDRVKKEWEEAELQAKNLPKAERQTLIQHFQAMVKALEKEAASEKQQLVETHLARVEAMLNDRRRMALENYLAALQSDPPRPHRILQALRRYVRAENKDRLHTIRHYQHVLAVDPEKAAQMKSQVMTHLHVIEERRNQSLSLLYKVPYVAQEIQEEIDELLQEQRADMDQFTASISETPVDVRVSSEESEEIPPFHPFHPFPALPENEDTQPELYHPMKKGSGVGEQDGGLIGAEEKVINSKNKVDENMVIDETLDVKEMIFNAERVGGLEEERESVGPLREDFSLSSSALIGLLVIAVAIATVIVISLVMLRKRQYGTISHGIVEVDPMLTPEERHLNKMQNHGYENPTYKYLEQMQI

Substance: freshly prepared biotin-Aβ42: freshly prepared Aβ42 with biotin attached by 6-carbon linker to amino terminus
- binding to hippocampal neurons (hippocampal neurons): does not

Substance: Aβ42
- binding to APLP2 (in words) (APLP2): neither of these proteins binds Aβ42
- binding to APP (in words) (APP): neither of these proteins binds Aβ42
- retention by PrP-Fc (in words) (PrP-Fc): retained Aβ42 peptide through a direct physical interaction
- retention by control Fc (control Fc protein): retained neither freshly prepared nor oligomeric preparations of Aβ42
- binding to PrP Δ52–91 (in words) (PrP Δ52–91): exhibits significant Aβ42 binding

Substance: biotin-Aβ42-oligomer: Aβ42 with biotin moiety attached by 6-carbon linker to amino terminus, oligomerized
- particle diameter [1]: 5–6 nm
- localization of binding on neurons (hippocampal neurons): very low levels in astroglial cells

Substance: Aβ42-oligomer
- binding to hippocampal neurons (hippocampal neurons): saturable; also recorded: binds to 21 DIV hippocampal neurons
- developmental dependence of neuronal binding (hippocampal neurons): minimal binding to neurons immediately after dissociation from E18 hippocampus; also recorded: Not until 15–20 days have elapsed in vitro does Aβ42-oligomer binding to neurons become robust
- localization of binding on neurons (hippocampal neurons): most concentrated at post-synaptic densities; also recorded: localization of PrP immunoreactivity and Aβ42-oligomer binding overlap extensively
- Kd (hippocampal neurons; read-out: apparent KD): 50 to 100 nM
- effect of copper on binding to PrP (PrP^C): does not alter Aβ42-oligomer binding
- Kd (PrP^C; read-out: KD, PrP): 92 nM
- affinity for Sprn (in words) (Sprn): neither exhibited affinity for oligomeric Aβ42
- affinity for Doppel (in words) (Doppel): neither exhibited affinity for oligomeric Aβ42
- binding to RAGE (in words) [2]: less Aβ42-oligomer binding signal than did PrP, APLP1 or TMEM30B
- reduction of punctate binding in Prnp −/− cultures [3]: 50%
- binding to PrP Δ32–121 (in words) (PrP Δ32–121): abrogates binding
- binding to PrP Δ32–106 (in words) (PrP Δ32–106): no Aβ42-oligomer affinity
- reduction of binding, PrP Δ95–105 (PrP Δ95–105): 80%
- binding to PrP Δ70–105 (in words) (PrP Δ70–105): no further reduction
- effect on LTP, wild-type slices [4]: reduce LTP in hippocampal slices from wild-type mice
- effect on LTP, Prnp −/− slices [5]: no significant inhibition of LTP
- effect on NR2B-containing NMDA receptor currents [6]: insensitive to Aβ42-oligomers
- effect on NR2D-containing NMDA receptor currents [7]: insensitive to Aβ42-oligomers
- effect on Schaffer collateral LTP [8]: suppress long-term potentiation (LTP)
